This test has as its system enthesitis in PsA patients. As to the kind of experiment: Phase 2 clinical study NCT03101670, enthesitis by Leeds Enthesitis Index (LEI). The test is classed as in vivo, human. Conditions: for LEI score (change from baseline): 200 mg q.d. The text has this:
As used herein, the term ‘Leeds Enthesitis Index’ or ‘LEI’ refers to a clinical scoring after examination of (entheseal) tenderness at six sites: 2 sites at each of the lateral epicondyles of the humerus, medial condyles of the femur and the insertion of the Achilles tendon. The LEI score range is 0-6. The higher the score, the higher the enthesitis burden.
This is a multicenter, Phase 2, double-blind, placebo-controlled study in subjects with moderately to severely active PsA who have an inadequate response or are intolerant to conventional disease-modifying therapy. […] Randomization to treatment groups are stratified by current cDMARD use (yes or no) and prior anti-TNF pharmaceutical use (yes or no).
In addition to the 16 sites used to assess enthesitis when evaluating the SPARCC Enthesitis Index, medial femoral condyles (left and right) is also assessed and evaluated in a similar way as the other 16 sites to allow assessing the Leeds enthesitis index (LEI).
Enthesitis is assessed using the SPARCC Enthesitis Index and Leeds Enthesitis Index (LEI). The Enthesitis parameters are analyzed only in the subpopulation of subjects who have enthesitis at baseline (LEI >0). Analysis focusses on the changes from baseline.

As for `O=C(Nc1nc2cccc(-c3ccc(CN4CCS(=O)(=O)CC4)cc3)n2n1)C1CC1` [compound I, cyclopropanecarboxylic acid {5-[4-(1,1-dioxo-thiomorpholin-4-ylmethyl)-phenyl]-[1,2,4]triazolo[1,5-a]pyridin-2yl}-amide], the “LEI score (change from baseline)” value is, setting by setting: (Week 4, enthesitis at baseline (LEI >0)) −1.7; (Week 8, enthesitis at baseline (LEI >0)) −2.1; (Week 12, enthesitis at baseline (LEI >0)) −1.9; (Week 16, enthesitis at baseline (LEI >0)) −1.8. Moreover, the “Enthesitis resolved per LEI, treatment difference versus placebo” value (patients with enthesitis at baseline) stood at 26%.
